{"source": "paper PMC10787790", "about": "“Isatin-tethered halogen-containing acylhydrazone derivatives as monoamine oxidase inhibitor with neuroprotective effect” (Scientific Reports, 2024)", "origin": "cited, not measured here", "tested_on": "MAO-B", "details": "printed in Figure 2 (design strategy), no reference given; cited from earlier work"}
{"compound": "O=C1Nc2ccc(Cl)cc2/C1=N\\NC(=O)c1ccc2c(c1)OCO2", "note": "[Compound 2A]", "values": [{"measurement": "IC50", "value": 89, "unit": "nM"}]}
